Assay results as given in US20240269139A1, “COMPOUNDS FOR TARGETED PROTEIN DEGRADATION OF KINASES” (DANA-FARBER CANCER INSTITUTE, INC., priority 2020, published 2024).
Read-outs that look alike come from different tables or passages of the source.

Assays:
Format in all cases: cell-based
[1] = molecular target: T1, protein kinases (human kinome) (Homo sapiens, UniProt P11387); conditions: TOP1 P11387
T1 sequence (P11387 1-765): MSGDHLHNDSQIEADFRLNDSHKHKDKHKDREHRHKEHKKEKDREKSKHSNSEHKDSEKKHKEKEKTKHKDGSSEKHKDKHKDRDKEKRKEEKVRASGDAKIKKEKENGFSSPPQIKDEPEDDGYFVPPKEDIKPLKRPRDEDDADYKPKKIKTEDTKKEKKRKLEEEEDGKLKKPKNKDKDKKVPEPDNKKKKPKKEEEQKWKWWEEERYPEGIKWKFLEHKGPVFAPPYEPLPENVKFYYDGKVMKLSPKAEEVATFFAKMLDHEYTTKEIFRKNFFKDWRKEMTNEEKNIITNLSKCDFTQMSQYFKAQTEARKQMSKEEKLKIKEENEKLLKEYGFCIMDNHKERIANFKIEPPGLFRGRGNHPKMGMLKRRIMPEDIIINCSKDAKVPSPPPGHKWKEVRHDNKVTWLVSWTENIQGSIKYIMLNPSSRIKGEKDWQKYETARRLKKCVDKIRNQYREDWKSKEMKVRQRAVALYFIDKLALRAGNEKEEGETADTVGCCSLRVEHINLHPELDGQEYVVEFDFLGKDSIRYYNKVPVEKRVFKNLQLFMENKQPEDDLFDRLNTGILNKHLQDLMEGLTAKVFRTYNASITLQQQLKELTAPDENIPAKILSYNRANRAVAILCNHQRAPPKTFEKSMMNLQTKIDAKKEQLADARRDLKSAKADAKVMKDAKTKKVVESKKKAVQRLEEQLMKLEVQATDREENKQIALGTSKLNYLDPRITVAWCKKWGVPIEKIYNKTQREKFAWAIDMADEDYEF

[2] = molecular target: protein kinases (human kinome) (Homo sapiens, UniProt Q05397)
[3] = molecular target: T2, protein kinases (human kinome) (Homo sapiens, UniProt P29320)
T2 sequence (P29320 21-983): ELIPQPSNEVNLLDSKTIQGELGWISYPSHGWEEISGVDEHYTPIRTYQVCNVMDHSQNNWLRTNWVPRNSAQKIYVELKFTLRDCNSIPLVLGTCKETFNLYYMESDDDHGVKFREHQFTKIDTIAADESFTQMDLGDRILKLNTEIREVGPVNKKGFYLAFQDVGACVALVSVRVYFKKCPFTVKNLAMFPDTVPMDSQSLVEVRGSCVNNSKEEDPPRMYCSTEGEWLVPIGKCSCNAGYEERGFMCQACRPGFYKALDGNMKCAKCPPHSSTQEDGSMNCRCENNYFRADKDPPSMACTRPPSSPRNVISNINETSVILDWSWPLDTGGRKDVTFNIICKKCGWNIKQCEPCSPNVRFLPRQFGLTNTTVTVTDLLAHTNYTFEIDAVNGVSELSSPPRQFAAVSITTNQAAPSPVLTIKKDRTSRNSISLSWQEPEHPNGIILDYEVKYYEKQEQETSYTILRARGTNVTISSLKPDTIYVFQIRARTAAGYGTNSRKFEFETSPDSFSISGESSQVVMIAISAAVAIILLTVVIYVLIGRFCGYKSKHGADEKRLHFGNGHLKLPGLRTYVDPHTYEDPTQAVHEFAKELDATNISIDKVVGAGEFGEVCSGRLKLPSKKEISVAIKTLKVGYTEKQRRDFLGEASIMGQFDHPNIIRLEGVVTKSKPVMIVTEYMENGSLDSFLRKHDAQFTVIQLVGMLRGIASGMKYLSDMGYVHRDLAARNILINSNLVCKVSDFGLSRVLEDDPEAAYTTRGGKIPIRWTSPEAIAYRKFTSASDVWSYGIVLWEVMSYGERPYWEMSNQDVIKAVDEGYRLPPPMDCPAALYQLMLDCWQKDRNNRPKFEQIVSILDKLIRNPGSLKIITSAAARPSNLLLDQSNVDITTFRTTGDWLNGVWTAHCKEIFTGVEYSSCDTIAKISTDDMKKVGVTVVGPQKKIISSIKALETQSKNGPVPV

[4] = Accession Q05397, experiment wp105, direction down

protein kinases (human kinome) (Homo sapiens, UniProt Q05397), sequence (Q05397 whole entry): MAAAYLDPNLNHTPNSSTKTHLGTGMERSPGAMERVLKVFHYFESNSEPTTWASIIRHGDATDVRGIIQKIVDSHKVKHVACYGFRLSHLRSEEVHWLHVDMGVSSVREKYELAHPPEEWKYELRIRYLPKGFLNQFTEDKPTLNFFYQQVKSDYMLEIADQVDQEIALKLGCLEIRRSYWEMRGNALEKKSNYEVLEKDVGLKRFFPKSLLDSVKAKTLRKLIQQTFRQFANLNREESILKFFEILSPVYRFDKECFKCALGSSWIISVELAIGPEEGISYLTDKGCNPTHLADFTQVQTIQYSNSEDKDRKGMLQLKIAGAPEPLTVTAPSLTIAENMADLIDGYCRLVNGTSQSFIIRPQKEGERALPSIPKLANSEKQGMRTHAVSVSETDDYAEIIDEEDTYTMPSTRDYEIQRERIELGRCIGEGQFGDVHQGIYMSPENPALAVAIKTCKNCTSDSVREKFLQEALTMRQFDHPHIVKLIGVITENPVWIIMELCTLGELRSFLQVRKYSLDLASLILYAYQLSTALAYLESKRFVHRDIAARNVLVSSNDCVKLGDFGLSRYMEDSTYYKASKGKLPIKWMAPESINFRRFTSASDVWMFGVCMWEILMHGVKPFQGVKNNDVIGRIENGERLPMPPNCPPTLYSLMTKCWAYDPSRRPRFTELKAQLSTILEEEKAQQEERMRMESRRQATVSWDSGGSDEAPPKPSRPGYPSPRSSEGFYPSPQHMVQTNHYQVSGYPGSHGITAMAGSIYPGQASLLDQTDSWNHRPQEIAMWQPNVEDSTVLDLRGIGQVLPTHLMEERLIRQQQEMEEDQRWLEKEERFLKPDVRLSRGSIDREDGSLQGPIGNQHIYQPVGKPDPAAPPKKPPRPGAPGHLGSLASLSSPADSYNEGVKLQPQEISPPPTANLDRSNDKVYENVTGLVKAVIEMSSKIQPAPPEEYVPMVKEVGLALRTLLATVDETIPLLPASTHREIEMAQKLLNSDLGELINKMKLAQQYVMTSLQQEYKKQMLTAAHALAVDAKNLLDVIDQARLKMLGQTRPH

## CC(=O)c1c(C)c2cnc(Nc3ccc(N4CCN(CCOCCOCCOCCNC(=O)COc5cccc6c5C(=O)N(C5CCC(=O)NC5=O)C6=O)CC4)cn3)nc2n(C2CCCC2)c1=O (stereo not drawn) [BSJ.03.123]
[1]; experiment wp084
  logFC: −0.3381

## Cc1ccc(NC(=O)c2cccc(C(F)(F)F)c2)cc1N1Cc2cnc(Nc3ccc(N4CCN(Cc5cn(CCCCCOc6cccc7c6C(=O)N(C6CCC(=O)NC6=O)C7=O)nn5)CC4)nc3)nc2N(C)C1=O (stereo not drawn) [DB0646, N-(3-(7-((6-(4-((1-(5-((2-(2,6-Dioxopiperidin-3-yl)-1,3-dioxoisoindolin-4-yl)oxy)pentyl)-1H-1,2,3-triazol-4-yl)methyl)piperazin-1-v)pyridin-3-yl)amino)-1-methyl-2-oxo-1,4-dihydropyrimido[4,5-d]pyrimidin-3(2H)-yl)-4-methylphenyl)-3-(trifluoromethyl)benzamide]
[2]; [4]
  logFC PTK2: −0.5575
[2]; PTK2 Q05397, experiment wp105
  logFC PTK2: −0.5575
[2]; PTK2 Q05397, experiment wp114
  logFC: −0.5538
  logFC PTK2: −0.5538
[2]; PTK2 Q05397, experiment wp172
  logFC: −0.8047
  logFC PTK2: −0.8047
[3]; Accession P29320, experiment wp045, direction down
  logFC EPHA3: −0.5333
[3]; Accession P29320, experiment wp103, direction down
  logFC EPHA3: −0.3715
[3]; Accession P29320, experiment wp107, direction down
  logFC EPHA3: −0.4346
[3]; Accession P29320, experiment wp117, direction down
  logFC EPHA3: −0.3587
[3]; Accession P29320, experiment wp152, direction down
  logFC EPHA3: −0.3871
[3]; Accession P29320, experiment wp160, 4 hr, direction down
  logFC EPHA3: −0.5814
[3]; Accession P29320, experiment wp160, 8 hr, direction down
  logFC EPHA3: −0.5528
[3]; EPHA3 (P29320), experiment wp045
  logFC EPHA3: −0.5333
[3]; EPHA3 (P29320), experiment wp103
  logFC EPHA3: −0.3715
[3]; EPHA3 (P29320), experiment wp107
  logFC EPHA3: −0.4346
[3]; EPHA3 (P29320), experiment wp117
  logFC EPHA3: −0.3587
[3]; EPHA3 (P29320), experiment wp152
  logFC EPHA3: −0.3871
[3]; EPHA3 (P29320), experiment wp160, 4 hr
  logFC EPHA3: −0.5814
[3]; EPHA3 (P29320), experiment wp160, 8 hr
  logFC EPHA3: −0.5528

## Cc1ccc(NC(=O)c2cccc(C(F)(F)F)c2)cc1N1Cc2cnc(Nc3ccc(N4CCN(CCCCC(=O)N[C@H](C(=O)N5C[C@H](O)C[C@H]5C(=O)N[C@@H](C)c5ccc(-c6scnc6C)cc5)C(C)(C)C)CC4)nc3)nc2N(C)C1=O [DB1113]
[3]; Accession P29320, experiment wp168, direction down
  logFC EPHA3: −0.4182
[3]; EPHA3 (P29320), experiment wp168
  logFC EPHA3: −0.4182

## CC(C)(C)c1nc(-c2cccc(NS(=O)(=O)c3c(F)cccc3F)c2F)c(-c2ccnc(NCCOCCNC(=O)CCOCCOCCNc3cccc4c3C(=O)N(C3CCC(=O)NC3=O)C4=O)n2)s1 (stereo not drawn) [DD.03.106]
[1]; experiment wp147, 4 uM
  logFC: −0.4525

## CC(C)(C)c1nc(-c2cccc(NS(=O)(=O)c3c(F)cccc3F)c2F)c(-c2ccnc(NCCOCCNC(=O)CCOCCOCCNc3cccc4c3CN(C3CCC(=O)NC3=O)C4=O)n2)s1 (stereo not drawn) [DD.03.107]
[1]; experiment wp147, 1 uM
  logFC: −0.3823
[1]; experiment wp147, 2 uM
  logFC: −0.4234
[1]; experiment wp147, 4 uM
  logFC: −0.4699

## Cc1ncsc1-c1ccc([C@H](C)NC(=O)[C@@H]2C[C@@H](O)CN2C(=O)[C@@H](NC(=O)CCOCCOCCN2CCN(c3ccc(Nc4ncc(Cl)c(Nc5ccccc5S(=O)(=O)C(C)C)n4)cc3)CC2)C(C)(C)C)cc1 [FMF.06.098.1]
[2]; PTK2 Q05397, experiment wp114
  logFC: −0.9477
  logFC PTK2: −0.9477

## Cc1ncsc1-c1ccc([C@H](C)NC(=O)[C@@H]2C[C@@H](O)CN2C(=O)[C@@H](NC(=O)CCCCCN2CCN(c3ccc(Nc4ncc5scc(-c6cccc(NS(C)(=O)=O)c6)c5n4)cc3)CC2)C(C)(C)C)cc1 [RSS0680, (2S,4R)-1-((S)-3,3-Dimethyl-2-(6-(4-(4-((7-(3-(methylsulfonamido)phenyl)thieno[3,2-d]pyrimidin-2-yl)amino)phenyl)piperazin-1-yl)hexanamido)butanoyl)-4-hydroxy-N—((S)-1-(4-(4-methylthiazol-5yl)phenyl)ethyl)pyrrolidine-2-carboxamide]
[1]; experiment wp080
  logFC: −0.4687

## Cn1c(=O)c(-c2c(Cl)cccc2Cl)cc2cnc(Nc3ccc(OCCNC(=O)CCCCCCNC(=O)COc4cccc5c4C(=O)N(C4CCC(=O)NC4=O)C5=O)cc3)nc21 (stereo not drawn) [SB1.G.192.1]
[3]; Accession P29320, experiment wp071, direction down
  logFC EPHA3: −1.175
[3]; Accession P29320, experiment wp081, direction down
  logFC EPHA3: −1.027
[3]; Accession P29320, experiment wp131, direction down
  logFC EPHA3: −1.318
[3]; EPHA3 (P29320), experiment wp071
  logFC EPHA3: −1.175
[3]; EPHA3 (P29320), experiment wp081
  logFC EPHA3: −1.027
[3]; EPHA3 (P29320), experiment wp131
  logFC EPHA3: −1.318

## CC(C)S(=O)(=O)c1ccccc1Nc1nc(Nc2ccc(N3CCN(CCOCCNC(=O)CNc4cccc5c4C(=O)N(C4CCC(=O)NC4=O)C5=O)CC3)cc2)ncc1Cl (stereo not drawn) [SK.3.91]
[2]; [4]
  logFC PTK2: −2.958
[2]; PTK2 Q05397, experiment wp105
  logFC PTK2: −2.958
[2]; PTK2 Q05397, experiment wp114
  logFC: −1.684
  logFC PTK2: −1.684
[2]; PTK2 Q05397, experiment wp172
  logFC: −2.689
  logFC PTK2: −2.689

## Cc1cc(Nc2ncc(Br)c(Nc3cccc(F)c3C(N)=O)n2)ccc1S(=O)(=O)NCCOCCOCCOCCOCCNc1cccc2c1C(=O)N(C1CCC(=O)NC1=O)C2=O (stereo not drawn) [TMX.02.174]
[2]; PTK2 Q05397, experiment wp146
  logFC: −0.8198
  logFC PTK2: −0.8198

## C=CCn1c(=O)c2cnc(Nc3ccc(N4CCN(CCCNc5cccc6c5C(=O)N(C5CCC(=O)NC5=O)C6=O)CC4)cc3)nc2n1-c1cccc(C(C)(C)O)n1 (stereo not drawn) [ZNL.02.096]
[1]; experiment wp056
  logFC: −0.3756
